Tests used:
Ts65Dn mice [1] = assay: Novel object recognition assay (Discrimination Index) in Ts65Dn mice, model of Down syndrome; type: in vivo, mouse
Procedure: (§1) Following baseline determinations and group assignments, WT and Ts65Dn mice received intraperitoneal (i.p.) injections once/day (08:00) for the two-week duration of the drug treatment regimen (FIG. 1). Drugs were dissolved in physiological saline. Two drops of Tween 80 were used to facilitate solution formation for flumazenil. Picrotoxin was initially made up at 50× concentration in 20% ethanol and then diluted down to a […] solution with 0.4% ETOH in saline. Doses of drugs were based on previous behavioral research in mice (1 mg/kg for PTX and 10 mg/kg for flumazenil). Injections were given in a volume of 10 ml/kg. A vehicle control was run along side the treatment groups (0.4% ETOH in saline).
(§2) FIG. 1 graphically depicts the protocol. After habituation to the animal facility, mice were tested for baseline behaviors in the open-field locomotor assay (LMA)(30 min session) and the novel object recognition assay. Primary experimental groups were divided by genotype (Ts65Dn mice and wild-type control littermates). These two groups were further divided into drug treatments (vehicle, PTX and flumazenil) with a targeted n-size of 8 mice/group (24 WT and 24 Ts65Dn mice total). The group assignments were made in a semi-random process due to constraints in animal availability (staggered shipping) and choice of initial treatment groups (e-mail documentation between Bilsky laboratory and Cypress Bioscience on file). Daily morning injections began on Day 1 and went through the morning of Day 14. On Days 7/8 and 14/15 (13:00) mice were tested in the behavioral assay. Mice were kept for an additional two weeks and re-tested on Days 21/22 and 28/29 to assess the duration of the drug treatment effect.
(§3) The novel object recognition task is based on the innate tendency of rodents to differentially explore novel objects over familiar ones. The task is well validated for evaluating rodent memory and the effects of drug treatments on learning/memory performance.
(§4) Mice were trained and tested once per week, each experimental session separated by a one-week interval. Mice were submitted to daily handling sessions, and given an opportunity to habituate to an open field arena (48 cm×48 cm wide×25 cm), where they were exposed to two different objects (complex protocol), during a 5-minute training session. Objects were made from various non-porous materials that differ in shape and color. Mice were unable to climb onto the objects and the objects were generally consistent in height and volume, and were roughly symmetrical on a horizontal plane. Objects were positioned in two corners of the apparatus. To control for odor cues, the open field arena and the objects are thoroughly cleaned with 90% ethanol, dried, and ventilated for a few minutes between mice.
(§5) A 5-minute testing session was conducted 24 h after training. Here, the mice were presented with the object they had explored the previous day, and a new item (the objects being alternatively positioned in one corner or another in a balanced fashion within a given week, and from one week to another). […]

WT and Ts65Dn mice = assay: Open-field locomotor assay (LMA), 30 min session; type: in vivo, mouse
Procedure: as §1, §2
General levels of arousal, locomotor activity and anxiety were assessed using an automated open-field activity monitoring system (Coulbourn Instruments with TruScan software). The open field test that were run were fully automated assays that quantified many different aspects and patterns of movement, including total distance traveled, time spent moving, rearing, and various stereotypic patterns of activity. The software calculates the time spent in the middle portions of the open field versus the outer zones alongside the outside walls. These variables can be used as one measure of general anxiety levels.
Mice were placed into an open field (26 cm×26 cm) in a brightly lit room. Two sensor rings (x-y plane and a vertical z plane) generate an array of infrared beams that surround the chamber. The pattern of beam breaks was recorded and the data fed into a personal computer. The TruScan software interpreted the beam breaks to calculate the movement variables and patterns of activity, with a temporal resolution of 100 msec. A 30 minutes session was used for assessment of the mice on Day 0 (Baseline) and then on Days 1, 7, 14, 21 and 28. Data were exported into an Excel spreadsheet, graphed and analyzed using parametric and non-parametric statistics.

WT mice = assay: Novel object recognition assay (Discrimination Index) in WT mice; type: in vivo, mouse
Procedure: as §1, §2, §3, §4, §5

Ts65Dn mice [2] = details: cited from earlier work; for improvement in cognition: 4 week crossover study
Ts65Dn mice [3] = type: in vivo, mouse; details: 4-week crossover, flumazenil or bretazenil 1.0 mg/kg i.p. for 2 weeks, bilobalide 5.0 mg/kg i.p. throughout
Procedure: (§6) A 4-week longitudinal crossover study is carried out following the method outlined by Fernandez et al., supra. Wild-type and Ts65Dn mice (3-4 months of age) are randomly assigned to groups receiving daily i.p. injections of saline or flumazenil (1.0 mg/kg), and are submitted to four weekly repetitions of object recognition testing, in which the animals are serially presented with four different object sets. At the 2-week midpoint of the experimental period, wild-type and Ts65Dn mice that have been receiving saline are randomly segregated into groups that either continue to receive daily saline injections or begin to receive daily injections of flumazenil. Conversely, wild-type and Ts65Dn mice that have been chronically administered flumazenil in the first 2 weeks of testing are switched onto a saline regimen. Alongside saline and flumazenil, bilobalide (i.p. 5.0 mg/kg) may be evaluated as a positive control. Bilobalide is a picrotoxin-like compound that may safely be administered for the whole 4-week experiment.
(§7) Flumazenil may also be tested for its effects on declarative memory in the novel object recognition test and in a modified spontaneous alternation task. Wild-type and Ts65Dn mice may be administered flumazenil (3 mg/kg in milk via voluntary oral feeding or 1 mg/kg i.p.). The wild-type and Ts65Dn mice are administered from 5 to 30 doses of milk or milk-flumazenil (or saline or flumazenil solution i.p.). The mice are then subjected to two repetitions of novel object recognition testing or three daily T-maze sessions at the tail end of the treatment regimen. […] Comparison of treated and untreated Ts65Dn mice will provide controls for any possible arm bias in the spontaneous alternation task.
as §6, with “bretazenil” for “flumazenil”, “bretazenil.” for “flumazenil.”, “bretazenil,” for “flumazenil,”
as §7, with “Bretazenil may” for “Flumazenil may”, “administered bretazenil” for “administered flumazenil”

Ts65Dn mice [4] = assay: Long-term potentiation (LTP) in the dentate gyrus of Ts65Dn mice (paper Examples 1 and 2); type: in vivo, mouse; details: about 1 month after cessation of drug treatment
Source text: Since the ability of animals to learn and remember is thought to be encoded at the synaptic level, and involves the ability of synapses to undergo long-term changes in synapse strength, long-term potentiation (LTP) in the dentate gyrus may be evaluated.

Down Syndrome patients = assay: Cognition in Down Syndrome patients, double-blind cross-over (Example 3); type: in vivo, human; details: 5 and 20 mg
Procedure: Fifteen adult or adolescent Down Syndrome patients experiencing at least some level of cognitive impairment participate in a double-blind, cross-over comparison of […]. The drugs administered are flumazenil (5 and 20 mg), bretazenil (5 and 20 mg) or placebo. Subjects are randomly assigned to treatments according to a Williams Square design (Higgitt, supra (citing Williams, “Experimental designs balanced for the estimation of residual effects of treatments, Aust. J. Sci. Res. 2:149-168 (1949))). Each subject receives a different sequence of four treatments balanced for carry-over effects and separated by at least 1 week of wash-out period. […]
Psychophysiological indices to be measured include: EEG, skin conductance, finger tremor, critical flicker fusion threshold, blood pressure and pulse rate, key tapping rate, and reaction time. […]
EEG and evoked responses: These are recorded during the same EEG recording procedure. […] In addition, the four values are summed and each is expressed as a percentage of the total.
The averaged evoked responses are obtained from the 500 ms epoch of the EEG following each of the 32 click stimuli. […] The latency at each peak and peak-to-peak amplitudes are computed and recorded automatically. […]
Skin conductance, blood pressure and pulse rate can be measured by the method of Higgitt et al., supra. […]

[5] = Week 1 of drug therapy, PTX 1 mg/kg, flumazenil 10 mg/kg i.p.

Row | Compound | Discrimination Index (DI) (Ts65Dn mice [1]; [5]) | Discrimination Index (DI) (Ts65Dn mice [1]; Week 2 of drug therapy) | LMA center distance traveled (WT and Ts65Dn mice; 7 and 14 days post dosing) | LMA margin vs. center time (WT and Ts65Dn mice; Day 1) | LMA margin vs. center time (WT and Ts65Dn mice; Day 7) | LMA margin vs. center time (WT and Ts65Dn mice; Day 21 (washout period)) | LMA margin vs. center time (WT and Ts65Dn mice; Day 28 (washout period)) | LMA vertical rearing (WT and Ts65Dn mice; WT and Ts65Dn mice, PTX during drug administration phases, flumazenil over the 4 week testing regimen) | LMA marginal distance traveled (WT and Ts65Dn mice; WT and Ts65Dn mice, across sessions, PTX 1 mg/kg, flumazenil 10 mg/kg i.p.) | LMA total distance traveled (WT and Ts65Dn mice; dosing phase (Days 1, 7 and 14), PTX 1 mg/kg i.p.) | LMA center distance traveled (WT and Ts65Dn mice; drug administration phase (Days 1, 7 and 14), PTX 1 mg/kg, flumazenil 10 mg/kg i.p.) | time after last dosing until LMA effects were gone (WT and Ts65Dn mice; total distance traveled, PTX 1 mg/kg i.p.) [days] | Discrimination Index (DI) (WT mice; [5]) | Discrimination Index (DI) (WT mice; Week 2 of drug therapy, versus vehicle) | Discrimination Index (DI) (WT mice; Week 4 (2 weeks post dosing)) | improvement in cognition (Ts65Dn mice [2]) | rescue of cognition (Ts65Dn mice [2]; Ts65Dn mice, two-week dosing regimen of 1.0 mg/kg i.p.) | object recognition performance (Ts65Dn mice [3]) | LTP in the dentate gyrus (Ts65Dn mice [4]) | indicators of cognition as compared to placebo (Down Syndrome patients)
1 | picrotoxin [PTX] | positive effects | positive effects | mild rebound effect | trend for decreased center time | small decrease in time spent in the center zone | increased time spent in center | trend for increased time spent in the center zone | dropping significantly | decreased distance traveled | modest decrease | decreased levels of activity | ≤ 7 | ~30 | no differences | positive DI | statistically significant improvement | clear benefit |  |  | 
2 | CC(C)(C)[C@]1(O)CC2OC(=O)CC23C(=O)OC2OC(=O)[C@H](O)C231 (stereo partly shown) [bilobalide] |  |  |  |  |  |  |  |  |  |  |  |  |  |  |  | statistically significant improvement |  | normalized object recognition performance |  | 
3 | CC(C)(C)OC(=O)c1ncn2c1[C@@H]1CCCN1C(=O)c1c(Br)cccc1-2 [bretazenil, tert-butyl-(S)-8-bromo-11,12,13,13a-tetrahydro-9-oxo-9H-imidazo[1,5-a]pyrrolo[2,1-c][1,4]benzodiazepine-1-carboxylate] |  |  |  |  |  |  |  |  |  |  |  |  |  |  |  |  |  | normalized object recognition performance | Normalized LTP | improvement in one or more indicators of cognition

Source: patent US20090270373A1, “TREATMENT OF DOWN SYNDROM WITH BENZODIAZEPINE RECEPTOR ANTAGONISTS” (Cypress Biosciences, Inc., priority 2008, published 2009)
